# Source: ChEMBL document CHEMBL1201862, “PubChem BioAssay data set” (2004)
# Activity calls are given as the source filed them. No stated cut-off is given here; in the data, actives have a measured IC50 and inactives only a lower limit.
# Target: Envelope glycoprotein gp160 (Human immunodeficiency virus 1, UniProt Q6QLK5)
# Assay: cell-free HIV fusion peptide-binding blockers – biochemical, uHTS, fluorescence dequenching, […] (AID 1986)
# Sequence of Envelope glycoprotein gp160 (Q6QLK5 whole entry, the tested form may be a part): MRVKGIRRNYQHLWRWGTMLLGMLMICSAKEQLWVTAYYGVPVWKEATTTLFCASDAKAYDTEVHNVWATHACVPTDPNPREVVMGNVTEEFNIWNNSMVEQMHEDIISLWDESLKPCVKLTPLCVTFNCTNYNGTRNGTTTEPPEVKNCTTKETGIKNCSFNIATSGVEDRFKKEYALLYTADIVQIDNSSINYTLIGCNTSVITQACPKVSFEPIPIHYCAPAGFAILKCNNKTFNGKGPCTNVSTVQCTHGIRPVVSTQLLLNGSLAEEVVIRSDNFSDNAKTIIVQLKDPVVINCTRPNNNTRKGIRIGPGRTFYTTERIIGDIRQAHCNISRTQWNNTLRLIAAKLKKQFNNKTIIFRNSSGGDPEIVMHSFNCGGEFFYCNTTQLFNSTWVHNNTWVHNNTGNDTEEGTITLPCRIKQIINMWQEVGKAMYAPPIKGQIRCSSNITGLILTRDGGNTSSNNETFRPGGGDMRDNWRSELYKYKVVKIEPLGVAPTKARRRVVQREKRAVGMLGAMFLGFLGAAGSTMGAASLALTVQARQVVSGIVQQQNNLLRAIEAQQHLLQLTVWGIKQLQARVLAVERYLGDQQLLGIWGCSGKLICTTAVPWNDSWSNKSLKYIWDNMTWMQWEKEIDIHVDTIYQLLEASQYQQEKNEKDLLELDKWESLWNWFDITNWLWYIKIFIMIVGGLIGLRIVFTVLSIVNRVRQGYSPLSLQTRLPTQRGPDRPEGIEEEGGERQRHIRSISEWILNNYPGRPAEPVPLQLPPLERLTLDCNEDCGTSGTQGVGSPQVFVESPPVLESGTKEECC
row,Compound,IC50
1,COc1ccc(OC)c(/C=C2\SC(=S)N(NS(=O)(=O)c3ccc(C)cc3)C2=O)c1,21.4 µM (active)
2,CC1=C(C#N)C(=O)NC(=O)/C1=C\c1ccc(-c2cc(C)c(C)cc2[N+](=O)[O-])o1,21.8 µM (active)
3,COc1ccc(-c2csc(NC(=O)CSc3nc(C)nc4sc(C(=O)O)c(C)c34)n2)cc1,9.37 µM (active)
